Legend:
Type in all cases: in vivo
[1] = tested on: Rutgers variety tomato plant seedlings; experiment: 2021 Greenhouse Tomato Trial
Excerpt: The base formulation used in greenhouse trials was an aqueous solution of L-theanine (20% by weight). The base formulation was further diluted with water as detailed for each trial. Rutgers variety tomato plant seedlings (n=6/treatment) were planted in commercial potting soil and then were transplanted to 3 gallon pots. L-theanine treatment was applied at the equivalent of 1 pint in 100 gallons of water (125 ppm) and sprayed till runoff. Two treatment applications were made to the plants approximately 14 days apart.

[2] = tested on: Butterbaby variety squash plant seedlings; experiment: 2021 Greenhouse Squash Trial
Excerpt: The base formulation used in greenhouse trials was an aqueous solution of L-theanine (20% by weight). The base formulation was further diluted with water as detailed for each trial. Butterbaby variety squash plant seedlings (n=4/treatment) were planted in commercial potting soil and then were transplanted to 3-gallon pots. L-theanine treatment was applied at the equivalent of 1 pint in 100 gallons of water (125 ppm) and sprayed till runoff. Two treatment applications were made to the plants approximately 14 days apart.

[3] = tested on: Zinnia plants; experiment: 2021 Zinnia Greenhouse Trial
Excerpt: The base formulation used in greenhouse trials was an aqueous solution of L-theanine (20% by weight). The base formulation was further diluted with water as detailed for each trial. Zinna seeds (n=6/treatment) were planted in commercial potting soil and then transplanted into 3-gallon pots. L-theanine treatment was applied at the equivalent of 1 pint in 100 gallons of water (125 ppm) and sprayed till runoff. Two treatments were made to the plants approximately 14 days apart.

[4] = tested on: Dwarf sunflower; experiment: 2021 Greenhouse Sunflower Trial
Excerpt: The base formulation used in greenhouse trials was an aqueous solution of L-theanine (20% by weight). The base formulation was further diluted with water as detailed for each trial. Dwarf sunflower seeds (n=9/treatment) were planted in commercial potting soil in 1-gallon pots. Approximately 14 days after emergence, an L-theanine solution was applied to the foliage at the equivalent of 8 fl. oz./acre in 50 gallons of water (125 ppm) and sprayed till run off. One application was made.

[5] = tested on: Soybean seed; experiment: 2020 Greenhouse Soybean Seed Treatment Trial
Description: The base formulation used in greenhouse trials was an aqueous solution of L-theanine (20% by weight). The base formulation was further diluted with water as detailed for each trial. Soybean seed (n=32/treatment) was treated with an aqueous solution of L-theanine at a rate of 1.0 fl. oz. per hundredweight of soybean seed. The seeds were planted in commercial potting soil in 1-gallon pots. The plants were grown for 21 days before they were harvested.

[6] = tested on: Soybean plants; experiment: 2021 Greenhouse Soybean Trial (foliar application)
Description: The base formulation used in greenhouse trials was an aqueous solution of L-theanine (20% by weight). The base formulation was further diluted with water as detailed for each trial. Soybean seeds (n=12/treatment) were planted in commercial potting soil in 1 gallon pots. […] The plants were grown for another 14 days then harvested.

[7] = tested on: corn; experiment: 2021 York, NE Corn Replicated Field Trial; conditions: in-furrow application 8 fl. oz. per acre; V5 growth stage; vs untreated plant
Excerpt: FIG. 1 is a photo from a 2021 York, NE Corn Trial. An aqueous solution of L-theanine was applied to the corn as an in-furrow application at a rate of 8 fl. oz. per acre. The pictures from the trial were taken at the V5 (5th Leaf) growth stage.

[8] = tested on: Onions; experiment: 2021 Pennsylvania Onion Replicated Field Trial
Description: Onions were maintained under grower standard practices. Four replications were performed per treatment. In this trial, applications of L-theanine were performed every 14 days for a total of 4 applications.

[9] = tested on: Mature apple trees; experiment: 2021 New York Replicated Apple Field Trial
Description: Mature apple trees (n=6) were treated with a 20% aqueous L-theanine solution at 1 pint per acre with application timings at Pink Bud, Bloom, Petal Fall, and every 2 weeks from Petal Fall until harvest.

[10] = foliar spray 125 ppm till runoff, two applications ~14 days apart
[11] = vs untreated check, 125 ppm foliar, two applications
[12] = foliar spray 125 ppm till runoff, two treatments ~14 days apart
[13] = over the untreated check, 125 ppm foliar, two treatments
[14] = foliar, 8 fl. oz./acre in 50 gallons of water (125 ppm), one application
[15] = over the untreated check, 125 ppm foliar, one application
[16] = over the untreated check, seed treatment
[17] = seed treatment 1.0 fl. oz. per hundredweight of seed, harvested after 21 days
[18] = above the untreated check, foliar 125 ppm
[19] = foliar, 8 fl. oz./50 gallons of water (125 ppm) till runoff, harvested 14 days later
[20] = vs untreated check, 4 applications
[21] = 20% aqueous solution at 1 pint per acre, Pink Bud, Bloom, Petal Fall, then every 2 weeks until harvest

CCNC(=O)CC[C@H](N)C(=O)O [L-theanine]
Basal Diameter [1, 10]: 6.75 a mm
Fruit (count) [1, 10]: 8.25 a count
Leaf (count) [1, 10]: 5 a count
Plant Height [1, 10]: 21.25 a in
increase in basal diameter [1, 11]: 1.1 mm
increase in basal diameter, percent [1, 11]: 19.5%
increase in fruit count [1, 11]: 3.75
increase in fruit count, percent [1, 11]: 83.3%
increase in plant height [1, 11]: 2.5 in
increase in plant height, percent [1, 11]: 13.3%
plant productivity, flowering and fruit set (in words) ([2]; 125 ppm foliar, two applications): improved plant productivity, early flowering, and early fruit set
Fruit/Vine (count) [2, 10]: 4.25 a count
Vine Length [2, 10]: 55.00 a in
increase in fruit per vine [2, 11]: 2.75 fruit
increase in fruit per vine, percent [2, 11]: 183.3%
increase in vine length [2, 11]: 11.25 in
increase in vine length, percent [2, 11]: 25.7%
Basal Diameter [3, 12]: 6.45 a mm
Flower (count) [3, 12]: 10.17 count
Plant Height [3, 12]: 35.83 a cm
increase in basal diameter [3, 13]: 1.2 mm
increase in basal diameter, percent [3, 13]: 22.9%
increase in flower counts [3, 13]: 6.0
increase in flower counts, percent [3, 13]: 143.9%
increase in plant height [3, 13]: 9.66 cm
increase in plant height, percent [3, 13]: 36.9%
Root Length [4, 14]: 1765.1 a cm
Root Surface Area [4, 14]: 491.1 a cm^2
Root Volume [4, 14]: 10.9 a cm^3
Plant Biomass ([4]; foliar, 8 fl. oz./acre in 50 gallons of water (125 ppm), one application ~14 days after emergence): 38.63 a g
increase in biomass [4, 15]: 4.4 grams
increase in biomass, percent [4, 15]: 12.8%
increase in root length [4, 15]: 70.5 cm
increase in root length, percent [4, 15]: 4.2%
increase in root surface area [4, 15]: 61.5 cm^2
increase in root surface area, percent [4, 15]: 14.3%
increase in root volume [4, 15]: 2.2 cm^3
increase in root volume, percent [4, 15]: 25.3%
increase in biomass [5, 16]: 0.43 g
increase in biomass, percent [5, 16]: 8.0%
increase in root length [5, 16]: 94.4 cm
increase in root length, percent [5, 16]: 8.1%
increase in root tips [5, 16]: 763.4
increase in root tips, percent [5, 16]: 21.0%
Plant Biomass [5, 17]: 5.80 a g
Root Length [5, 17]: 1263.7 a cm
Root Tips (count) [5, 17]: 4392.0 a count
increase in biomass [6, 18]: 2.2 g
increase in biomass, percent [6, 18]: 20.1%
increase in root length [6, 18]: 254.6 cm
increase in root length, percent [6, 18]: 13.2%
increase in root tips [6, 18]: 1345.1
increase in root tips, percent [6, 18]: 36.1%
Plant Biomass [6, 19]: 13.02 a g
Root Length [6, 19]: 2185.8 a cm
Root Tips (count) [6, 19]: 5075.9 a count
root biomass development and stalk girth (FIG. 1, in words) [7]: increases in root biomass development and stalk girth
Fresh Onion Mass ([8]; applications every 14 days, total of 4 applications): 227 a g
size and uniformity of onions (FIG. 2, in words) ([8]; treated over untreated onions): increase in size and uniformity
increase in biomass of the onions [8, 20]: 75.0 g
increase in biomass of the onions, percent [8, 20]: 49.3%
Defects [9, 21]: 114.5 a bu/acre
Salable Yield [9, 21]: 837.8 a bu/acre
Total Yield [9, 21]: 952.3 a bu/acre
increase in salable yield, percent ([9]; vs untreated check): 12.5%
number of defective fruits (in words) ([9]; vs untreated check): reduced the number of defective fruits
increase in salable yield ([9]; vs untreated check, 1 bushel=48 lbs): 93.1 bushels/acre

Reference: patent publication US20230172203A1, “PLANT METABOLISM PROMOTING COMPOSITIONS AND METHODS OF USE” (Panoptic Ag Solutions LLC, priority 2021, published 2023)
